Measured values as given in patent US20210380606A1, “5-AZAINDAZOLE DERIVATIVES AS ADENOSINE RECEPTOR ANTAGONISTS” (Merck Patent GmbH, priority 2018, published 2021).

Columns and labels:
human A2A receptors = target: T1, human A2A receptors (Homo sapiens, UniProt P29274); experiment: Functional human A2A receptor activity, recombinant HEK293 cells, cAMP (HTRF); type: cell-based; settings: read-out: A2A (Category)
T1 construct: expressed in transfected cells; host or cells: HEK293
Outline: (§1)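 Read-out is cellular cAMP measured by HTRF, added once a 15 min incubation had ended. cAMP reflects adenosine receptor signalling as the second messenger.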

human A2B receptors = target: T2, human A2B receptors (Homo sapiens, UniProt P29275); experiment: Functional human A2B receptor activity, recombinant HEK293 cells, cAMP (HTRF); type: cell-based; settings: read-out: A2B (Category)
T2 construct: expressed in transfected cells; host or cells: HEK293
T2 sequence (P29275 1-332): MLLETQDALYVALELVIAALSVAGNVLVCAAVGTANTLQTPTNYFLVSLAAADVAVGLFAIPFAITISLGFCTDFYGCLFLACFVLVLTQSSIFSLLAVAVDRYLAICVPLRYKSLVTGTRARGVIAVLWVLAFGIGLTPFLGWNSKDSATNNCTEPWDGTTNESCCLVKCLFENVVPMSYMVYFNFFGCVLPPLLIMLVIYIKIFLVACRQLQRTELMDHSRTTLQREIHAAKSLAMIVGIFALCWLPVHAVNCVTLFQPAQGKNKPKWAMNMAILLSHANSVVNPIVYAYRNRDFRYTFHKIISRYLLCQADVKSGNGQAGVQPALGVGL
Outline: as §1

T1 sequence (P29274 whole entry): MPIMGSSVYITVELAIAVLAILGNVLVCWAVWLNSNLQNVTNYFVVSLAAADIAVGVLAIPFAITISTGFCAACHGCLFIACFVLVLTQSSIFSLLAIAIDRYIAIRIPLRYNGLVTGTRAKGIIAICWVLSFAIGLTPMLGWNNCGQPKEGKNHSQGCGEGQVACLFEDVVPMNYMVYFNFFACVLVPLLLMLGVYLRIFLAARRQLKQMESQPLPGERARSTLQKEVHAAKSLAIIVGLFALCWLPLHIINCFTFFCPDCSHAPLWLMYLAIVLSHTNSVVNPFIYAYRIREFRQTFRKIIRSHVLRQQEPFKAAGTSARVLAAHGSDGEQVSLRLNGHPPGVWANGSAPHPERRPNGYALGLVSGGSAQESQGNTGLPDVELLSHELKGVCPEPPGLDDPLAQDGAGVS

SMILES | IC50 (human A2A receptors) | IC50 (human A2B receptors)
O=C(c1cc2c(cn1)c(-c1c[nH]c3ccc(F)cc13)nn2CC(F)(F)F)N1CCCOCC1 [Compound 123, [3-(5-fluoro-1H-indol-3-yl)-1-(2,2,2-trifluoroethyl)pyrazolo[4,3-c]pyridin-6-yl]-(1,4-oxazepan-4-yl)methanone] | < 100 nM | < 100 nM
O=C(c1cc2c(cn1)c(-c1cnc3cc(Cl)c(F)cn13)nn2CC(F)(F)F)N1CCCCCC1 [Compound 73, Azepan-1-yl-[3-(7-chloro-6-fluoro-imidazo[1,2-a]pyridin-3-yl)-1-(2,2,2-trifluoro-ethyl)-1H-pyrazolo[4,3-c]pyridin-6-yl]-methanone] | < 100 nM | < 100 nM
O=C(c1cc2c(cn1)c(-c1coc3ccc(F)cc13)nn2CC(F)(F)F)N1CC2CCC(C1)O2 [Compound 127, [3-(5-fluorobenzofuran-3-yl)-1-(2,2,2-trifluoroethyl)pyrazolo[4,3-c]pyridin-6-yl]-(8-oxa-3-azabicyclo[3.2.1]octan-3-yl)methanone] | < 100 nM | < 100 nM
O=C(c1cc2c(cn1)c(-c1coc3ccccc13)nn2CC(F)(F)F)N1CCCC(F)(F)C1 [Compound 226, [3-(benzofuran-3-yl)-1-(2,2,2-trifluoroethyl)pyrazolo[4,3-c]pyridin-6-yl]-(3,3-difluoro-1-piperidyl)methanone] | < 100 nM | < 1000 nM
CS(=O)(=O)Cn1nc(-c2cnc3c(F)cc(F)cn23)c2cnc(C(=O)N3CC4CCC(C4)C3)cc21 [Compound 23, (3-Aza-bicyclo[3.2.1]oct-3-yl)-[3-(6,8-difluoro-imidazo[1,2-a]pyridin-3-yl)-1-methanesulfonylmethyl-1H-pyrazolo[4,3-c]pyridin-6-yl]-methanone] | < 100 nM | < 100 nM
O=C(c1cc2c(cn1)c(-c1cnc3c(F)cc(F)cn13)nn2CC(F)(F)F)N1CCCC(O)CC1 (stereo not drawn) [Compound 177, [3-(6,8-Difluoro-imidazo[1,2-a]pyridin-3-yl)-1-(2,2,2-trifluoro-ethyl)-1H-pyrazolo[4,3-c]pyridin-6-yl]-(4-hydroxy-azepan-1-yl)-methanone] | < 100 nM | < 100 nM
O=C(c1cc2c(cn1)c(-c1coc3ccccc13)nn2CC(F)(F)F)N1[C@@H]2CC[C@H]1C[C@@H](O)C2 [Compound 209, [3-Benzofuran-3-yl-1-(2,2,2-trifluoro-ethyl)-1H-pyrazolo[4,3-c]pyridin-6-yl]-(3-endo-hydroxy-8-aza-bicyclo[3.2.1]oct-8-yl)-methanone] | < 100 nM | < 100 nM
[2H]C1([2H])CCOCCN1C(=O)c1cc2c(cn1)c(-c1cnc3c(F)cc(F)cn13)nn2CC(F)(F)F [Compound 190, [3-(6,8-Difluoro-imidazo[1,2-a]pyridin-3-yl)-1-(2,2,2-trifluoro-ethyl)-1H-pyrazolo[4,3-c]pyridin-6-yl]-1,4-oxazepan-5,5-dideuterio-4-yl-methanone] | < 100 nM | < 100 nM
O=C(c1cc2c(cn1)c(-c1c[nH]c3ncccc13)nn2CC(F)(F)F)N1CCCCCC1 [Compound 92, Azepan-1-yl-[3-(1H-pyrrolo[2,3-b]pyridin-3-yl)-1-(2,2,2-trifluoro-ethyl)-1H-pyrazolo[4,3-c]pyridin-6-yl]-methanone] | < 100 nM | < 1000 nM
O=C(c1cc2c(cn1)c(-c1cnc3c(F)cc(F)cn13)nn2CC(F)(F)F)N1CCOCC(O)C1 (stereo not drawn) [Compound 193, [3-(6,8-Difluoro-imidazo[1,2-a]pyridin-3-yl)-1-(2,2,2-trifluoro-ethyl)-1H-pyrazolo[4,3-c]pyridin-6-yl]-(6-hydroxy-1,4-oxazepan-4-yl)-methanone] | < 100 nM | < 1000 nM
O=C(c1cc2c(cn1)c(-c1cnc3c(F)cc(F)cn13)nn2CC(F)(F)F)N1C2CCCC1CC2 [Compound 172, (8-Aza-bicyclo[3.2.1]oct-8-yl)-[3-(6,8-difluoro-imidazo[1,2-a]pyridin-3-yl)-1-(2,2,2-trifluoro-ethyl)-1H-pyrazolo[4,3-c]pyridin-6-yl]-methanone] | < 100 nM | < 100 nM
O=C(c1cc2c(cn1)c(-c1cnn3ccccc13)nn2CC(F)(F)F)N1CCC(O)CC1 [Compound 114, (4-hydroxy-1-piperidyl)-[3-pyrazolo[1,5-a]pyridin-3-yl-1-(2,2,2-trifluoroethyl)pyrazolo[4,3-c]pyridin-6-yl]methanone] | < 100 nM | < 100 nM
O=C(c1cc2c(cn1)c(-c1cnc3c(F)cc(F)cn13)nn2CC(F)(F)F)N1CC2CC1CO2 (stereo not drawn) [Compound 135, [3-(6,8-Difluoro-imidazo[1,2-a]pyridin-3-yl)-1-(2,2,2-trifluoro-ethyl)-1H-pyrazolo[4,3-c]pyridin-6-yl]-(2-oxa-5-aza-bicyclo[2.2.1]hept-5-yl)-methanone] | < 100 nM | < 1000 nM
O=C(c1cc2c(cn1)c(-c1coc3ccccc13)nn2CC(F)(F)F)N1CCCOCC1 [Compound 94, [3-Benzofuran-3-yl-1-(2,2,2-trifluoro-ethyl)-1H-pyrazolo[4,3-c]pyridine-6-yl]-1,4-oxazepan-4-yl-methanone] | < 100 nM | < 100 nM
[2H]C1([2H])COCCN(C(=O)c2cc3c(cn2)c(-c2cnn4ccccc24)nn3CC(F)(F)F)C1 [Compound 121, (6,6-dideuterio-1,4-oxazepan-4-yl)-[3-pyrazolo[1,5-a]pyridin-3-yl-1-(2,2,2-trifluoroethyl)pyrazolo[4,3-c]pyridin-6-yl]methanone] | < 100 nM | < 100 nM
O=C(c1cc2c(cn1)c(-c1c[nH]c3ccccc13)nn2CC(F)(F)F)N1CCCCCC1 [Compound 91, Azepan-1-yl-[3-(1H-indol-3-yl)-1-(2,2,2-trifluoro-ethyl)-1H-pyrazolo[4,3-c]pyridin-6-yl]-methanone] | < 100 nM | < 100 nM
O=C(c1cc2c(cn1)c(-c1cnc3c(F)cc(F)cn13)nn2CC(F)(F)F)N1CCCC(O)C1 (stereo not drawn) [Compound 151, [3-(6,8-Difluoro-imidazo[1,2-a]pyridin-3-yl)-1-(2,2,2-trifluoro-ethyl)-1H-pyrazolo[4,3-c]pyridin-6-yl]-(3-hydroxy-piperidin-1-yl)-methanone] | < 100 nM | < 1000 nM
COCC1CCCN1C(=O)c1cc2c(cn1)c(-c1coc3ccccc13)nn2CS(C)(=O)=O (stereo not drawn) [Compound 34, (3-Benzofuran-3-yl-1-methanesulfonylmethyl-1H-pyrazolo[4,3-c]pyridin-6-yl)-(2-methoxymethyl-pyrrolidin-1-yl)-methanone] | < 100 nM | < 1000 nM
O=C(c1cc2c(cn1)c(-c1cnn3ccccc13)nn2CC(F)(F)F)N1CC2CCC(C1)O2 [Compound 99, (8-Oxa-3-aza-bicyclo[3.2.1]oct-3-yl)-[3-pyrazolo[1,5-a]pyridin-3-yl-1-(2,2,2-trifluoro-ethyl)-1H-pyrazolo[4,3-c]pyridin-6-yl]-methanone] | < 100 nM | < 1000 nM
O=C(c1cc2c(cn1)c(-c1ccc3ccccn13)nn2CC(F)(F)F)N1CCCCCC1 [Compound 52, Azepan-1-yl-[3-indolizin-3-yl-1-(2,2,2-trifluoro-ethyl)-1H-pyrazolo[4,3-c]pyridin-6-yl]-methanone] | < 100 nM | < 1000 nM
O=C(c1cc2c(cn1)c(-c1cnc3c(F)cc(F)cn13)nn2CC(F)(F)F)N1CCC2(CC1)COC2 [Compound 166, [3-(6,8-Difluoro-imidazo[1,2-a]pyridin-3-yl)-1-(2,2,2-trifluoro-ethyl)-1H-pyrazolo[4,3-c]pyridin-6-yl]-(2-oxa-7-aza-spiro[3.5]non-7-yl)-methanone] | < 100 nM | < 1000 nM
O=C(c1cc2c(cn1)c(-n1cnc3ccccc31)nn2CC(F)(F)F)N1CCCOCC1 [Compound 251, [3-(benzimidazol-1-yl)-1-(2,2,2-trifluoroethyl)pyrazolo[4,3-c]pyridin-6-yl]-(1,4-oxazepan-4-yl)methanone] | < 100 nM | < 1000 nM
CS(=O)(=O)Cn1nc(-c2coc3ccccc23)c2cnc(C(=O)N3CCCC(O)C3)cc21 (stereo not drawn) [Compound 38, (3-Benzofuran-3-yl-1-methanesulfonylmethyl-1H-pyrazolo[4,3-c]pyridin-6-yl)-(3-hydroxy-piperidin-1-yl)-methanone] | < 100 nM | < 1000 nM
CS(=O)(=O)Cn1nc(-c2coc3ccccc23)c2cnc(C(=O)N3[C@@H]4CC[C@H]3C[C@@H](O)C4)cc21 [Compound 37, [3-(benzofuran-3-yl)-1-(methylsulfonylmethyl)pyrazolo[4,3-c]pyridin-6-yl]-(3-endo-hydroxy-8-azabicyclo[3.2.1]octan-8-yl)methanone] | < 100 nM | < 100 nM
O=C(c1cc2c(cn1)c(-c1coc3ccccc13)nn2CC(F)F)N1CCCOCC1 [Compound 103, [3-Benzofuran-3-yl-1-(2,2-difluoro-ethyl)-1H-pyrazolo[4,3-c]pyridin-6-yl]-1,4-oxazepan-4-yl-methanone] | < 100 nM | < 1000 nM
C#CC1(O)C2CCC1CN(C(=O)c1cc3c(cn1)c(-c1coc4ccccc14)nn3CC(F)(F)F)C2 (stereo not drawn) [Compound 214] | < 100 nM | < 1000 nM
O=C(c1cc2c(cn1)c(-c1coc3ccc(F)cc13)nn2CC(F)(F)F)N1CCOCC(O)C1 (stereo not drawn) [Compound 118, [3-(5-fluorobenzofuran-3-yl)-1-(2,2,2-trifluoroethyl)pyrazolo[4,3-c]pyridin-6-yl]-(6-hydroxy-1,4-oxazepan-4-yl)methanone] | < 100 nM | < 100 nM
